Our source for the Observed efficacy and inhibition of growth values is US20250338849A1 (priority 2022, published 2025).

Holding throughout (type): cell-based
The test system of one test is Septoria tritici. Briefly: Activity against leaf blotch on wheat caused by Septoria tritici (microtiter plate). The note with it: single active.
A further test concerns Pyricularia oryzae. The test is described as follows: microbe, parasite or virus in culture. The note with it: for Observed efficacy: single active; for inhibition of growth at 4 ppm / inhibition of growth at 0.016 ppm / inhibition of growth at 0.063 ppm / inhibition of growth at 0.25 ppm / inhibition of growth at 1 ppm: Pyricularia oryzae, 168 h, read-out: Observed efficacy.

The subject of a further test is Botrytis cinerea. Briefly: Activity against the grey mold Botrytis cinerea in the microtiterplate test. The note with it: single active.
[1] abbreviates: Zymoseptoria tritici, 168 h, 0.25 ppm, read-out: Observed efficacy.
[2] abbreviates: Zymoseptoria tritici, 168 h, read-out: Observed efficacy.
The mark [3] stands for this setting: Botrytis cinerea, 168 h, read-out: Observed efficacy.
Setting [4] is: Zymoseptoria tritici, 168 h, 0.016 ppm, read-out: Observed efficacy.
Setting [5] is: Zymoseptoria tritici, 168 h, 0.063 ppm, read-out: Observed efficacy.
The mark [6] stands for this setting: Botrytis cinerea, 168 h, 0.063 ppm, read-out: Observed efficacy.

Molecules are shown by their SMILES.

As to `O=C(NC1CCC1c1ccc(Cl)cc1Cl)c1cccnc1C(F)(F)F` (stereo in doubt) [Cyclobutrifuram, cyclobutrifluram], the figures for the Observed efficacy in the test on Septoria tritici (0.25 ppm) and in the test on Pyricularia oryzae (1 ppm) were 34% and 14%, respectively.

In the case of `CO/C=C(/C(=O)OC)c1ccccc1Oc1cc(Oc2ccccc2C#N)ncn1` [Azoxystrobin, azoxystrobin], the Observed efficacy in the test on Septoria tritici (0.016 ppm) is on record as 3%; with Septoria tritici (0.063 ppm), 43%; with Pyricularia oryzae (0.016 ppm) it was 59%.

With `O=C(Nc1ccccc1-c1ccc(Cl)cc1)c1cccnc1Cl` [Boscalid, boscalid], in the test on Septoria tritici (setting [1]), the inhibition of growth at 0.25 ppm is 21%. Also, the inhibition of growth at 1 ppm in the test with Septoria tritici (setting [2]) was found to be 62%; in the test on Botrytis cinerea (setting [3]), 76%. Also, the inhibition of growth at 4 ppm in the test on Pyricularia oryzae was 12%.

Take `Cc1cc(C2=NC(C)(C)Oc3c2ccc(F)c3F)cnc1C(F)F` [Compound 1-1]: the inhibition of growth at 0.004 ppm with Septoria tritici (Zymoseptoria tritici, 168 h, 0.004 ppm, read-out: Observed efficacy) worked out at 4%. For the same compound, the inhibition of growth at 0.016 ppm with Septoria tritici (setting [4]) stood at 3%; with Pyricularia oryzae, 8%. The inhibition of growth at 0.063 ppm with Septoria tritici (setting [5]) and in the test with Pyricularia oryzae was 10% in each case. Also, the inhibition of growth at 0.25 ppm with Septoria tritici (setting [1]) came to 22%; in the test on Pyricularia oryzae, 21%. Further, the inhibition of growth at 1 ppm turned out to be 33% in the test with Botrytis cinerea (setting [3]) and 65% with Pyricularia oryzae.

Take `Cc1cc(C2=NC(C)(C)Oc3c(F)cccc32)cnc1C(F)F` [Compound 1-2]: the inhibition of growth at 0.25 ppm in the test on Septoria tritici (setting [1]) came out at 0%; with Pyricularia oryzae, 15%. In addition, the inhibition of growth at 1 ppm with Septoria tritici (setting [2]) was found to be 0%; in the test on Botrytis cinerea (setting [3]) it was 19%; with Pyricularia oryzae it was 31%. Further, the inhibition of growth at 0.063 ppm in the test with Pyricularia oryzae is 4%.

On to `COc1ccc2c(c1F)OC(C)(C)N=C2c1cnc(C(F)F)c(C)c1` [Compound 1-3], for which the results for the inhibition of growth at 0.063 ppm in the test on Septoria tritici (setting [5]) and in the test on Pyricularia oryzae were 21% and 0%, respectively. The inhibition of growth at 0.25 ppm in the test on Septoria tritici (setting [1]) came to 20%. For the same compound, the inhibition of growth at 1 ppm in the test on Septoria tritici (setting [2]) was 18%; with Botrytis cinerea (setting [3]) it was 12%; in the test with Pyricularia oryzae, 12%.

In the case of `CC1COC(Cn2cncn2)(c2ccc(Oc3ccc(Cl)cc3)cc2Cl)O1` (stereo not drawn) [Difenoconazol, difenoconazole], the inhibition of growth at 0.063 ppm with Botrytis cinerea (setting [6]) amounted to 8%.

For the compound `CNC(=O)/C(=N/OC)c1ccccc1COc1cc(C)ccc1C` [Dimoxystrobin, dimoxystrobin], the Observed efficacy in the test on Botrytis cinerea (0.25 ppm) stood at 2%.

As to `COc1ccnc(C(=O)N[C@@H](C)C(=O)O[C@@H](C)C(c2ccc(F)cc2)c2ccc(F)cc2)c1OC(C)=O` [Florylpicoxamid, florylpicoxamid], the results for the Observed efficacy in the test on Septoria tritici (0.016 ppm), in the test with Pyricularia oryzae (0.004 ppm) and with Pyricularia oryzae (0.016 ppm) were 47%, 28% and 70%, respectively.

On to `O=[N+]([O-])c1cc(C(F)(F)F)c(Cl)c([N+](=O)[O-])c1Nc1ncc(C(F)(F)F)cc1Cl` [Fluazinam, fluazinam], for which the inhibition of growth at 0.063 ppm in the test with Septoria tritici (setting [5]) is 5%; in the test with Pyricularia oryzae, 19%.

As for `N#Cc1c[nH]cc1-c1cccc2c1OC(F)(F)O2` [Fludioxonil, fludioxonil], the inhibition of growth at 0.016 ppm with Septoria tritici (setting [4]) came to 1%. Besides, in the test with Pyricularia oryzae, the inhibition of growth at 0.016 ppm came to 14%, the inhibition of growth at 0.063 ppm is 45% and the inhibition of growth at 0.25 ppm came to 69%.

Take `O=C(NCCc1ncc(C(F)(F)F)cc1Cl)c1ccccc1C(F)(F)F` [Fluopyram, fluopyram]: in the test on Septoria tritici (setting [1]), the inhibition of growth at 0.25 ppm turned out to be 33%.

Take `Cn1cc(C(=O)Nc2ccccc2-c2cc(F)c(F)c(F)c2)c(C(F)F)n1` [Fluxapyroxad, fluxapyroxad]: the values for the Observed efficacy with Septoria tritici (0.063 ppm) and with Botrytis cinerea (0.063 ppm) were 27% and 29%, respectively.

As to `CC(C)NC(=O)N1CC(=O)N(c2cc(Cl)cc(Cl)c2)C1=O` [Iprodion, iprodione], the results for the inhibition of growth at 1 ppm in the test on Septoria tritici (setting [2]) and in the test on Botrytis cinerea (setting [3]) were 9% and 52%, respectively. Also, the inhibition of growth at 4 ppm with Pyricularia oryzae was 42%.

As for `Cc1cc(OC(C)C)ccc1C(=O)C(C)(C)NC(=O)c1sccc1C` [Isofetamid, isofetamid], the Observed efficacy with Septoria tritici (0.25 ppm) came to 45%; in the test with Pyricularia oryzae (4 ppm), 15%.

`Cc1cccc(-n2nnn(C)c2=O)c1COc1ccn(-c2ccc(Cl)cc2)n1` [Methyltetraprol, metyltetraprole]: the Observed efficacy is on record as 51% in the test with Septoria tritici (0.016 ppm) and 38% in the test on Pyricularia oryzae (0.016 ppm).

Regarding `CC(C)CC(C)c1sccc1NC(=O)c1cn(C)nc1C(F)(F)F` (stereo not drawn) [Penthiopyrad, penthiopyrad], the results for the inhibition of growth at 0.063 ppm with Septoria tritici (setting [5]) and in the test on Botrytis cinerea (setting [6]) were 33% and 10%, respectively.

In the case of `OC(Cc1ccccc1Cl)(Cn1nc[nH]c1=S)C1(Cl)CC1` (stereo not drawn) [Prothioconazol, prothioconazole], in the test on Septoria tritici (setting [1]), the inhibition of growth at 0.25 ppm stood at 66%. The inhibition of growth at 1 ppm in the test on Botrytis cinerea (setting [3]) is 22%; in the test on Pyricularia oryzae, 15%. Also, the inhibition of growth at 4 ppm in the test on Botrytis cinerea (Botrytis cinerea, 168 h, 4 ppm, read-out: Observed efficacy) came out at 58%.

Consider `CON(C(=O)c1cn(C)nc1C(F)F)C(C)Cc1c(Cl)cc(Cl)cc1Cl` (stereo not drawn) [Pydiflumetofen, pydiflumetofen], for which the Observed efficacy in the test with Septoria tritici (0.016 ppm) came out at 67%; with Botrytis cinerea (0.063 ppm), 15%.

As to `CC(C)(C)C(O)(CCc1ccc(Cl)cc1)Cn1cncn1` (stereo not drawn) [Tebuconazol, tebuconazole], the inhibition of growth at 0.25 ppm was 50% in the test on Septoria tritici (setting [1]); 38% with Botrytis cinerea (Botrytis cinerea, 168 h, 0.25 ppm, read-out: Observed efficacy); 10% in the test with Pyricularia oryzae.

For the compound `Cc1ccc(NC(=O)c2snnc2C)cc1Cl` [Tiadinil, tiadinil], the inhibition of growth at 4 ppm in the test on Septoria tritici (Zymoseptoria tritici, 168 h, 4 ppm, read-out: Observed efficacy) amounted to 10%.
